{"source": "patent US20260262643A1", "about": "“HERBICIDAL BENZOXAZINES” (FMC CORPORATION, priority 2022, published 2026)", "key": {"[1]": {"test_system": "barnyardgrass", "assay": "Test C postemergence", "assay_type": "in vivo, Echinochloa crusgalli", "conditions": "10 days", "in_short": "(§1)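 Test material, in non-phytotoxic solvent with surfactant, was sprayed on the soil directly after seeding (preemergence) or on young plants of 2–10 cm with one to two leaves (postemergence). Greenhouse, 10 days; 0–100 visual control scale.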"}, "[2]": {"test_system": "corn", "assay": "Test C preemergence", "assay_type": "in vivo, Zea mays", "conditions": "0 to 100 scale (0 no effect, 100 complete control)", "in_short": "as §1"}, "[3]": {"test_system": "soybean", "assay": "Test C postemergence", "assay_type": "in vivo, Glycine max", "conditions": "10 days", "in_short": "as §1"}, "[4]": {"test_system": "wheat", "assay": "Test C postemergence", "assay_type": "in vivo, Triticum aestivum", "conditions": "10 days", "in_short": "as §1"}, "[5]": {"test_system": "blackgrass", "assay": "Test C postemergence", "assay_type": "in vivo, Alopecurus myosuroides", "conditions": "10 days", "in_short": "as §1"}, "[6]": {"test_system": "corn", "assay": "Test C postemergence", "assay_type": "in vivo, Zea mays", "conditions": "10 days", "in_short": "as §1"}, "[7]": {"test_system": "barnyardgrass", "assay": "Test D flooded paddy test", "assay_type": "in vivo, Echinochloa crus-galli", "conditions": "250 g ai/ha, applied to paddy water, visual rating after 13 to 14 days, scale 0 to 100 (0 no effect, 100 complete control)", "in_short": "(§2)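 Visual ratings from 0, meaning no effect, to 100, meaning complete control, were assigned against untreated controls 13 to 14 days after compounds were added to the floodwater of pots kept 3 cm deep, with plants at the 2-leaf stage.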"}, "[8]": {"test_system": "ryegrass, Italian", "assay": "Test C preemergence", "assay_type": "in vivo, Lolium multiflorum", "conditions": "0 to 100 scale (0 no effect, 100 complete control)", "in_short": "as §1"}, "[9]": {"test_system": "oat, wild", "assay": "Test C postemergence", "assay_type": "in vivo, Avena fatua", "conditions": "10 days", "in_short": "as §1"}, "[10]": {"test_system": "kochia", "assay": "Test C postemergence", "assay_type": "in vivo, Bassia scoparia", "conditions": "10 days", "in_short": "as §1"}, "[11]": {"test_system": "oat, wild", "assay": "Test C preemergence", "assay_type": "in vivo, Avena fatua", "conditions": "0 to 100 scale (0 no effect, 100 complete control)", "in_short": "as §1"}, "[12]": {"test_system": "soybean", "assay": "Test C preemergence", "assay_type": "in vivo, Glycine max", "conditions": "0 to 100 scale (0 no effect, 100 complete control)", "in_short": "as §1"}, "[13]": {"test_system": "pigweed, palmer", "assay": "Test C preemergence", "assay_type": "in vivo, Amaranthus palmeri", "conditions": "0 to 100 scale (0 no effect, 100 complete control)", "in_short": "as §1"}, "[14]": {"test_system": "barnyardgrass", "assay": "Test C preemergence", "assay_type": "in vivo, Echinochloa crusgalli", "conditions": "0 to 100 scale (0 no effect, 100 complete control)", "in_short": "as §1"}, "[15]": {"test_system": "kochia", "assay": "Test C preemergence", "assay_type": "in vivo, Bassia scoparia", "conditions": "0 to 100 scale (0 no effect, 100 complete control)", "in_short": "as §1"}, "[16]": {"test_system": "horseweed", "assay": "Test C postemergence", "assay_type": "in vivo, Erigeron canadensis", "conditions": "10 days", "in_short": "as §1"}, "[17]": {"test_system": "blackgrass", "assay": "Test C preemergence", "assay_type": "in vivo, Alopecurus myosuroides", "conditions": "0 to 100 scale (0 no effect, 100 complete control)", "in_short": "as §1"}, "[18]": {"test_system": "ragweed", "assay": "Test C postemergence", "assay_type": "in vivo, Ambrosia artemisiifolia", "conditions": "10 days", "in_short": "as §1"}, "[19]": {"test_system": "sedge, umbrella", "assay": "Test D flooded paddy test", "assay_type": "in vivo, Cyperus difformis", "conditions": "250 g ai/ha, applied to paddy water, visual rating after 13 to 14 days, scale 0 to 100 (0 no effect, 100 complete control)", "in_short": "as §2"}, "[20]": {"test_system": "galium", "assay": "Test C postemergence", "assay_type": "in vivo, Galium aparine", "conditions": "10 days", "in_short": "as §1"}, "[21]": {"test_system": "ragweed", "assay": "Test C preemergence", "assay_type": "in vivo, Ambrosia artemisiifolia", "conditions": "0 to 100 scale (0 no effect, 100 complete control)", "in_short": "as §1"}, "[22]": {"test_system": "pigweed, palmer", "assay": "Test C postemergence", "assay_type": "in vivo, Amaranthus palmeri", "conditions": "10 days", "in_short": "as §1"}, "[23]": {"test_system": "ducksalad", "assay": "Test D flooded paddy test", "assay_type": "in vivo, Heteranthera limosa", "conditions": "250 g ai/ha, applied to paddy water, visual rating after 13 to 14 days, scale 0 to 100 (0 no effect, 100 complete control)", "in_short": "as §2"}, "[24]": {"test_system": "green foxtail", "assay": "Test C preemergence", "assay_type": "in vivo, Setaria viridis", "conditions": "0 to 100 scale (0 no effect, 100 complete control)", "in_short": "as §1"}, "[25]": {"test_system": "wheat", "assay": "Test C preemergence", "assay_type": "in vivo, Triticum aestivum", "conditions": "0 to 100 scale (0 no effect, 100 complete control)", "in_short": "as §1"}, "[26]": {"test_system": "ryegrass, Italian", "assay": "Test C postemergence", "assay_type": "in vivo, Lolium multiflorum", "conditions": "10 days", "in_short": "as §1"}, "[27]": {"test_system": "green foxtail", "assay": "Test C postemergence", "assay_type": "in vivo, Setaria viridis", "conditions": "10 days", "in_short": "as §1"}, "[28]": {"test_system": "rice", "assay": "Test D flooded paddy test", "assay_type": "in vivo, Oryza sativa", "conditions": "250 g ai/ha, applied to paddy water, visual rating after 13 to 14 days, scale 0 to 100 (0 no effect, 100 complete control)", "in_short": "as §2"}, "[29]": {"conditions": "125 g ai/ha, postemergence, 0 to 100 scale, 0 no effect, 100 complete control"}, "[30]": {"conditions": "Postemergence, 500 g ai/ha, visual 0 to 100 scale (0 no effect, 100 complete control)"}, "[31]": {"conditions": "Preemergence, 500 g ai/ha, visual rating after 10 days"}, "[32]": {"conditions": "Test C, preemergence, 125 g ai/ha"}}}
{"smiles": "CC(C)c1ncn(-c2cc3c(c(C(=O)N4C[C@H](C)Oc5c(Cl)cccc54)c2)OCCCO3)n1", "note": "[Compound 158]", "values": [{"measurement": "Plant response rating, Barnyardgrass", "setting": "[1]; [29]", "value": 40}, {"measurement": "Plant response rating, Barnyardgrass", "setting": "[1]; [30]", "value": 70}, {"measurement": "Plant response rating, Corn", "setting": "[2]; [31]", "value": 20}, {"measurement": "Corn plant response rating", "setting": "[2]; [32]", "value": 0}, {"measurement": "Plant response rating, Soybean", "setting": "[3]; [29]", "value": 100}, {"measurement": "Plant response rating, Soybean", "setting": "[3]; [30]", "value": 100}, {"measurement": "Plant response rating, Wheat", "setting": "[4]; [29]", "value": 30}, {"measurement": "Plant response rating, Wheat", "setting": "[4]; [30]", "value": 70}, {"measurement": "Plant response rating, Blackgrass", "setting": "[5]; [29]", "value": 40}, {"measurement": "Plant response rating, Blackgrass", "setting": "[5]; [30]", "value": 90}, {"measurement": "Plant response rating, Corn", "setting": "[6]; [29]", "value": 50}, {"measurement": "Plant response rating, Corn", "setting": "[6]; [30]", "value": 60}, {"measurement": "Plant response rating, Barnyardgrass (Flood)", "setting": "[7]", "value": 25}, {"measurement": "Plant response rating, Ryegrass, Italian", "setting": "[8]; [31]", "value": 80}, {"measurement": "Ryegrass, Italian plant response rating", "setting": "[8]; [32]", "value": 80}, {"measurement": "Plant response rating, Oat, Wild", "setting": "[9]; [29]", "value": 30}, {"measurement": "Plant response rating, Oat, Wild", "setting": "[9]; [30]", "value": 60}, {"measurement": "Plant response rating, Kochia", "setting": "[10]; [29]", "value": 70}, {"measurement": "Plant response rating, Kochia", "setting": "[10]; [30]", "value": 90}, {"measurement": "Plant response rating, Oat, Wild", "setting": "[11]; [31]", "value": 80}, {"measurement": "Oat, Wild plant response rating", "setting": "[11]; [32]", "value": 20}, {"measurement": "Plant response rating, Soybean", "setting": "[12]; [31]", "value": 80}, {"measurement": "Soybean plant response rating", "setting": "[12]; [32]", "value": 50}, {"measurement": "Plant response rating, Pigweed, Palmer", "setting": "[13]; [31]", "value": 100}, {"measurement": "Pigweed, Palmer plant response rating", "setting": "[13]; [32]", "value": 100}, {"measurement": "Barnyardgrass plant response rating", "setting": "[14]; 125 g ai/ha, preemergence", "value": 60}, {"measurement": "Plant response rating, Barnyardgrass", "setting": "[14]; [31]", "value": 90}, {"measurement": "Plant response rating, Kochia", "setting": "[15]; [31]", "value": 90}, {"measurement": "Kochia plant response rating", "setting": "[15]; [32]", "value": 70}, {"measurement": "Plant response rating, Horseweed", "setting": "[16]; [29]", "value": 20}, {"measurement": "Plant response rating, Horseweed", "setting": "[16]; [30]", "value": 20}, {"measurement": "Plant response rating, Blackgrass", "setting": "[17]; [31]", "value": 60}, {"measurement": "Blackgrass plant response rating", "setting": "[17]; [32]", "value": 40}, {"measurement": "Plant response rating, Ragweed", "setting": "[18]; [29]", "value": 90}, {"measurement": "Plant response rating, Ragweed", "setting": "[18]; [30]", "value": 80}, {"measurement": "Plant response rating, Sedge, Umbrella (Flood)", "setting": "[19]", "value": 75}, {"measurement": "Plant response rating, Galium", "setting": "[20]; [29]", "value": 100}, {"measurement": "Plant response rating, Galium", "setting": "[20]; [30]", "value": 90}, {"measurement": "Plant response rating, Ragweed", "setting": "[21]; [31]", "value": 90}, {"measurement": "Ragweed plant response rating", "setting": "[21]; [32]", "value": 80}, {"measurement": "Plant response rating, Pigweed, Palmer", "setting": "[22]; [29]", "value": 80}, {"measurement": "Plant response rating, Pigweed, Palmer", "setting": "[22]; [30]", "value": 100}, {"measurement": "Plant response rating, Ducksalad (Flood)", "setting": "[23]", "value": 65}, {"measurement": "Plant response rating, Foxtail, Green", "setting": "[24]; [31]", "value": 100}, {"measurement": "Foxtail, Green plant response rating", "setting": "[24]; [32]", "value": 100}, {"measurement": "Plant response rating, Wheat", "setting": "[25]; [31]", "value": 40}, {"measurement": "Wheat plant response rating", "setting": "[25]; [32]", "value": 10}, {"measurement": "Plant response rating, Ryegrass, Italian", "setting": "[26]; [29]", "value": 40}, {"measurement": "Plant response rating, Ryegrass, Italian", "setting": "[26]; [30]", "value": 70}, {"measurement": "Plant response rating, Foxtail, Green", "setting": "[27]; [29]", "value": 60}, {"measurement": "Plant response rating, Foxtail, Green", "setting": "[27]; [30]", "value": 90}, {"measurement": "Plant response rating, Rice (Flood)", "setting": "[28]", "value": 0}]}
